{"source": "patent US8772299B2", "about": "“Phenyl piperazine compounds, pharmaceutical composition including the same and use thereof” (SK Biopharmaceuticals Co., Ltd., priority 2008, dated 2014)", "note": "Where a name gives a salt, the structure may show the parent alone.", "data": [{"target": "T1, Serotonin 1A (5-HT1A) receptor (Rattus norvegicus, UniProt P19327)", "T1 construct": "The cortex tissue were homogenized in 30 volumes of ice-cold 50 mM Tris-HCl buffer; from tissue; host or cells: Sprague-Dawley rat brain cortex membranes", "T1 sequence (P19327 1-422)": "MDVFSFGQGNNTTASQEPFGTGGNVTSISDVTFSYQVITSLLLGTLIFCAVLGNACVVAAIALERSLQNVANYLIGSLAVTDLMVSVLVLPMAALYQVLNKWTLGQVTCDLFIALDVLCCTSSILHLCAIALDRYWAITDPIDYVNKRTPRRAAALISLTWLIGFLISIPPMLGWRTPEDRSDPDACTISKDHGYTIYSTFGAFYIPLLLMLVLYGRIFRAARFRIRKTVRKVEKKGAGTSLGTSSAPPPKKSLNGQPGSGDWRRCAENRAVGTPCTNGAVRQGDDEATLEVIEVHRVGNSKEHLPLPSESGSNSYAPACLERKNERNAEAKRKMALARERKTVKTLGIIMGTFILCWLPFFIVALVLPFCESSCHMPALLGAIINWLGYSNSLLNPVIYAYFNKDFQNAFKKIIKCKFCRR", "experiment": "Serotonin 1A (5-HT1A) receptor inhibition assay, [3H]8-OH-DPAT binding to rat cortex membranes", "set-up": "species or system Sprague-Dawley (SD) rats", "conditions": "10 nM test compound; 0.92 nM [3H]8-OH-DPAT; rat cortex homogenate; 60 min at 25° C.", "protocol": "The method to test the ability of compounds to inhibit serotonin 1A(5-HT1A) receptors was using Hall. et al., J Neuro Chem., 1985, 44, p 1685-1696 with modification.\nThe Sprague-Dawley (SD) rats were killed by decapitation and their brains rapidly removed at 4° C. The cortex tissue were homogenized in 30 volumes of ice-cold 50 mM Tris-HCl buffer (pH7.4) using an ultra-turrax T8 and centrifuged at 48,000 g for 20 min. The supernatant was discarded and the pellet washed twice by resuspension in 20 volumes Tris-HCl and centrifugation, homogenized in 20 volumes Tris-HCl, and incubated at 37° C. for 10 min. Membranes were than collected by centrifugation and washed twice before final resuspension in 10 volumes of 50 mM Tris-HCl, pH7.4.\nFor binding assays, the incubation medium consisted of 162.5 ug of tissue homogenate, 0.92 nM of [3H]8-OH-DPAT and vehicle or 10 uM of 5-HT or 10 nM of test compounds per well. 5-HT and test compounds were dissolved in distilled water and incubation medium was 50 mM Tris(pH7.4 at room temperature). The assay plates (96 well) were incubated for 60 min at 25° C. The reaction was terminated by rapid filtration using a Tomtec harvester, through GF/C glassfibre filter with 5 times washes of Tris buffer. The radioactivity retained on the filters was counted by scintillation spectroscopy (MicroBeta TriLux, Wallac). The tests were triplicates. Percent inhibition was calculated as below equation.\nTotal binding is the value of vehicle treated group and specific binding is the values that deduct non-specific binding (i.e. the value of non-specific ligand, 5-HT).", "units": {"inhibition at 0.01 µM": "%"}, "values": [{"smiles": "COc1ccccc1N1CCN(CCCCOc2ccc(Cn3cnnn3)cc2)CC1", "note": "[Example 3, 1-(2-methoxy-phenyl)-4-[4-(4-tetrazol-1-ylmethyl-phenoxy)-butyl]-piperazine]", "inhibition at 0.01 µM": 77.8}, {"smiles": "COc1ccccc1N1CCN(CCCCOc2ccc(Cn3ncnn3)cc2)CC1", "note": "[Example 4, 1-(2-methoxy-phenyl)-4-[4-(4-tetrazol-2-ylmethyl-phenoxy)-butyl]-piperazine]", "inhibition at 0.01 µM": 75.9}, {"smiles": "COc1ccccc1N1CCN(CCCCOc2cccc(Cn3cncn3)c2)CC1", "note": "[Example 6, 1-(2-methoxy-phenyl)-4-[4-(3-[1,2,4]triazol-1-ylmethyl-phenoxy)-butyl]-piperazine hydrochloride]", "inhibition at 0.01 µM": 50.1}, {"smiles": "COc1ccccc1N1CCN(CCCCOc2cccc(Cn3ncnn3)c2)CC1", "note": "[Example 8, 1-(2-methoxy-phenyl)-4-[4-(3-tetrazol-2-ylmethyl-phenoxy)-butyl]-piperazine hydrochloride]", "inhibition at 0.01 µM": 81.6}, {"smiles": "COc1ccccc1N1CCN(CCCCOc2ccc(Cn3cnc4ccccc43)cc2)CC1", "note": "[Example 9, 1-(4-{4-[4-(2-methoxy-phenyl)-piperazin-1-yl]-butoxy}-benzyl)-1H-benzoimidazole]", "inhibition at 0.01 µM": 52.2}, {"smiles": "COc1ccccc1N1CCN(CCCCOc2ccc(Cn3ccnc3C)cc2)CC1", "note": "[Example 10, 1-(2-Methoxy-phenyl)-4-{4-[4-(2-methyl-imidazol-1-ylmethyl)-phenoxy]-butyl}-piperazine]", "inhibition at 0.01 µM": 71.8}, {"smiles": "COc1ccccc1N1CCN(CCCCOc2ccc(Cn3ncc4ccccc43)cc2)CC1", "note": "[Example 13, 1-(4-{4-[4-(2-Methoxy-phenyl)-piperazin-1-yl]-butoxy}-benzyl)-1H-indazole]", "inhibition at 0.01 µM": 50.4}, {"smiles": "COc1ccccc1N1CCN(CCCCOc2ccc(Cn3nnc4ccccc43)cc2)CC1", "note": "[Example 14, 1-(4-{4-[4-(2-Methoxy-phenyl)-piperazin-1-yl]-butoxy}-benzyl)-1H-benzotriazole]", "inhibition at 0.01 µM": 51.1}, {"smiles": "COc1ccccc1N1CCN(CCCCOc2ccc(Cn3nnc(-c4ccccc4)n3)cc2)CC1", "note": "[Example 15, 1-(2-methoxy-phenyl)-4-{4-[4-(5-phenyl-tetrazol-2-ylmethyl)-phenoxy]-butyl}-piperazine]", "inhibition at 0.01 µM": 23.5}, {"smiles": "COc1ccccc1N1CCN(CCCCOc2ccc(Cn3nnnc3-c3ccccc3)cc2)CC1", "note": "[Example 16, 1-(2-methoxy-phenyl)-4-{4-[4-(5-phenyl-tetrazol-1-ylmethyl)-phenoxy]-butyl}-piperazine]", "inhibition at 0.01 µM": 62.5}, {"smiles": "COc1ccccc1N1CCN(CCCCOc2ccc(Cn3nnc(C)n3)cc2)CC1", "note": "[Example 17, 1-(2-methoxy-phenyl)-4-{4-[4-(5-methyl-tetrazol-2-ylmethyl)-phenoxy]-butyl}-piperazine]", "inhibition at 0.01 µM": 56.4}, {"smiles": "COc1ccccc1N1CCN(CCCCOc2ccc(Cn3nnnc3C)cc2)CC1", "note": "[Example 18, 1-(2-methoxy-phenyl)-4-{4-[4-(5-methyl-tetrazol-1-ylmethyl)-phenoxy]-butyl}-piperazine]", "inhibition at 0.01 µM": 69.5}, {"smiles": "COc1ccccc1N1CCN(CCCCOc2ccc(CNc3nccs3)cc2)CC1", "note": "[Example 22, (4-{4-[4-(2-methoxy-phenyl)-piperazin-1-yl]-butoxy}-benzyl)-thiazol-2-yl-amine]", "inhibition at 0.01 µM": 53.4}, {"smiles": "Clc1ccccc1N1CCN(CCCCOc2ccc(Cn3cncn3)cc2)CC1", "note": "[Example 23, 1-(2-chloro-phenyl)-4-[4-(4-[1,2,4]triazol-1-ylmethyl-phenoxy)-butyl]-piperazine]", "inhibition at 0.01 µM": 17.2}, {"smiles": "COc1ccccc1N1CCN(CCCCOc2cccc(Cn3ccnn3)c2)CC1", "note": "[Example 25, 1-(2-Methoxy-phenyl)-4-[4-(3-[1,2,3]triazol-1-ylmethyl-phenoxy)-butyl]-piperazine]", "inhibition at 0.01 µM": 45.2}, {"smiles": "COc1ccccc1N1CCN(CCCCOc2cccc(Cn3nnc(C)n3)c2)CC1", "note": "[Example 26, 1-(2-Methoxy-phenyl)-4-{4-[3-(5-methyl-tetrazol-2-ylmethyl)-phenoxy]-butyl}-piperazine]", "inhibition at 0.01 µM": 47}, {"smiles": "COc1ccccc1N1CCN(CCCCOc2cccc(Cn3nnnc3C)c2)CC1", "note": "[Example 27, 1-(2-methoxy-phenyl)-4-{4-[3-(5-methyl-tetrazol-1-ylmethyl)-phenoxy]-butyl}-piperazine]", "inhibition at 0.01 µM": 40.9}, {"smiles": "COc1ccccc1N1CCN(CCCCOc2cccc(CN3CCOCC3)c2)CC1", "note": "[Example 29, 4-(3-{4-[4-(2-methoxy-phenyl)-piperazin-1-yl]-butoxy}-benzyl)-morpholine]", "inhibition at 0.01 µM": 45.8}, {"smiles": "COc1ccccc1N1CCN(CCCCOc2ccc(Cn3cnc(Cl)c3Cl)cc2)CC1", "note": "[Example 30, 1-{4-[4-(4,5-dichloro-imidazol-1-ylmethyl)-phenoxy]-butyl}-4-(2-methoxy-phenyl)-piperazine]", "inhibition at 0.01 µM": 38.3}, {"smiles": "Clc1ccccc1N1CCN(CCCCOc2ccc(Cn3ncnn3)cc2)CC1", "note": "[Example 31, 1-(2-chloro-phenyl)-4-[4-(4-tetrazol-2-ylmethyl-phenoxy)-butyl]-piperazine]", "inhibition at 0.01 µM": 30.3}, {"smiles": "CN1CCN(Cc2ccc(OCCCCN3CCN(c4ccccc4Cl)CC3)cc2)CC1", "note": "[Example 35]", "inhibition at 0.01 µM": 73.3}, {"smiles": "Cc1nnnn1Cc1ccc(OCCCCN2CCN(c3cccc(Cl)c3Cl)CC2)cc1", "note": "[Example 37, 1-(2,3-Dichloro-phenyl)-4-{4-[4-(5-methyl-tetrazol-1-ylmethyl)-phenoxy]-butyl}-piperazine]", "inhibition at 0.01 µM": 24.8}, {"smiles": "Cc1nnn(Cc2ccc(OCCCCN3CCN(c4cccc(Cl)c4Cl)CC3)cc2)n1", "note": "[Example 38, 1-(2,3-Dichloro-phenyl)-4-{4-[4-(5-methyl-tetrazol-2-ylmethyl)-phenoxy]-butyl}-piperazine]", "inhibition at 0.01 µM": 29.4}, {"smiles": "Clc1ccccc1N1CCN(CCCCOc2ccc(Cn3ccnn3)cc2)CC1", "note": "[Example 42, 1-(2-chloro-phenyl)-4-[4-(4-[1,2,3]triazol-1-ylmethyl-phenoxy)-butyl]-piperazine]", "inhibition at 0.01 µM": 36.2}, {"smiles": "COc1ccccc1N1CCN(CCCCOc2ccc(CNc3nncs3)cc2)CC1", "note": "[Example 43, (4-{4-[4-(2-Methoxy-phenyl)-piperazin-1-yl]-butoxy}-benzyl)-[1,3,4]thiadiazol-2-yl-amine]", "inhibition at 0.01 µM": 95.6}, {"smiles": "Clc1cccc(N2CCN(CCCCOc3ccc(Cn4ccnn4)cc3)CC2)c1Cl", "note": "[Example 44, 1-(2,3-dichloro-phenyl)-4-[4-(4-[1,2,3]triazol-1-ylmethyl-phenoxy)-butyl]-piperazine]", "inhibition at 0.01 µM": 17.4}, {"smiles": "COc1ccccc1N1CCN(CCCCOc2ccc(CNc3cc(C)on3)cc2)CC1", "note": "[Example 45, (4-{4-[4-(2-Methoxy-phenyl)-piperazin-1-yl]-butoxy}-benzyl)-(5-methyl-isoxazol-3-yl)-amine]", "inhibition at 0.01 µM": 73.8}, {"smiles": "COc1ccccc1N1CCN(CCCCOc2ccc(CNc3cc(C)no3)cc2)CC1", "note": "[Example 46, (4-{4-[4-(2-methoxy-phenyl)-piperazin-1-yl]-butoxy}-benzyl)-(3-methyl-isoxazol-5-yl)-amine]", "inhibition at 0.01 µM": 64.6}, {"smiles": "COc1ccccc1N1CCN(CCCCOc2ccc(CCn3nnnc3C)cc2)CC1", "note": "[Example 53, 1-(2-Methoxy-phenyl)-4-(4-{4-[2-(5-methyl-tetrazol-1-yl)-ethyl]-phenoxy}-butyl)-piperazine]", "inhibition at 0.01 µM": 46}, {"smiles": "Clc1ccccc1N1CCN(CCCCOc2ccc(Cn3nccn3)cc2)CC1", "note": "[Example 56, 1-(2-chloro-phenyl)-4-[4-(4-[1,2,3]triazol-2-ylmethyl-phenoxy)-butyl]-piperazine]", "inhibition at 0.01 µM": 24.3}]}, {"test_system": "mice", "experiment": "Tail Suspension Test in Mice (TST)", "format": "in vivo", "conditions": "Mus musculus, reduction in immobility vs control group, 1 mg/kg, po", "from_the_text": "(§1) Tail Suspension Test in mice is the well-known animal model to determine antidepressant efficacy of compounds by checking escaping behavior and immobility time of mice. Mice treated with antidepressant drug show escaping behavior continuously comparing with control group.\n(§2) The mice were mainly treated orally with the test compound dissolved in 30% PEG400 or with only 30% PEG400 as control. Tail of mouse is suspended to the rod of TST equipment and end of tail is fixed with sticky tape. Suspended mouse is incubated during 2 min for training and adaptation and after following 2 min, observe escaping behavior and check immobility time for 4 min. The potent ability of the compounds was determined as percent value of reduction in immobility comparing to control group as 100% baseline.", "units": {"inhibition in vivo at 1 mg/kg": "%"}, "values": [{"smiles": "COc1ccccc1N1CCN(CCCCOc2cccc(Cn3ncnn3)c2)CC1", "note": "[Example 8, 1-(2-methoxy-phenyl)-4-[4-(3-tetrazol-2-ylmethyl-phenoxy)-butyl]-piperazine hydrochloride]", "inhibition in vivo at 1 mg/kg": 19.6}, {"smiles": "COc1ccccc1N1CCN(CCCCOc2ccc(Cn3nnnc3C)cc2)CC1", "note": "[Example 18, 1-(2-methoxy-phenyl)-4-{4-[4-(5-methyl-tetrazol-1-ylmethyl)-phenoxy]-butyl}-piperazine]", "inhibition in vivo at 1 mg/kg": 14.7}]}, {"test_system": "mice", "experiment": "Tail Suspension Test in Mice (TST)", "format": "in vivo", "conditions": "reduction in immobility vs control group, 30 mg/kg, po", "from_the_text": "as §1, §2", "values": [{"smiles": "CN(C)CCC[C@@]1(c2ccc(F)cc2)OCc2cc(C#N)ccc21", "note": "[Estalopram, reference compound]", "% reduction": "47, at 30 mg/kg, po %"}, {"smiles": "CNCCC(Oc1ccc(C(F)(F)F)cc1)c1ccccc1", "note": "(stereo not shown) [Fluxetine, reference compound]", "% reduction": "49. at 30 mg/kg, po %"}]}]}
